Measurements: US20240165120A1, “TREATING CANCER IN PATIENT HAVING CO-OCCURRING GENETIC ALTERATION IN FGFR2 AND A CANCER DRIVER GENE” (TAIHO PHARMACEUTICAL CO., LTD., priority 2021, published 2024)

Tests used:
Crystal form stability = conditions: crystal forms defined by XRPD peaks
[1] = Crystal form oral absorbability; conditions: crystal forms defined by XRPD peaks
advanced iCCA = conditions: 1st line; patients with advanced iCCA; cited from earlier work

Molecule	stability (Crystal form stability)	oral absorbability [1]	overall survival (advanced iCCA) [year]
C=CC(=O)N1CC[C@H](n2nc(C#Cc3cc(OC)cc(OC)c3)c3c(N)ncnc32)C1 [Compound (1), (S)-1-[(3)-[4-amino-3-[(3,5-dimethoxyphenyl)ethynyl]-1H-pyrazolo[3,4-d]pyrimidin-1-yl]-1-pyrrolidinyl]-2-propen-1-one]	good stability	excellent oral absorbability	–
Gemcitabine-cisplatin	–	–	1
